We go through five molecules from patent publication US9133141B2, “Cysteine and cystine bioisosteres to treat schizophrenia and reduce drug cravings” (Marquette University, priority 2008, dated 2015).

The test system of data set [1] is rats. Kind of data set: Prepulse inhibition of acoustic startle, phencyclidine-induced sensorimotor gating deficit. Type of data set: in vivo, rat. The settings on record: for inhibition of startle response when preceded by pre-pulse (sensorimotor gating): rats pretreated 60 min, PCP 1.25 mg/kg SC, FIG. 7. An excerpt:
Sensorimotor gating, a process compromised in schizophrenic patients, is often measured using prepulse inhibition whereby a mild auditory stimulus (prepulse, 2-15 db above background) precedes (100 ms) a startle-eliciting auditory stimulus (50 dB above background). Intact sensorimotor gating will result in suppression of the startle reflex when preceded by the prepulse. Since improvement in prepulse inhibition tracks improvement in symptoms that are largely insensitive to current treatments, this paradigm has become one of the most commonly used screening paradigms. FIG. 5 illustrates the capacity of PCP to disrupt prepulse inhibition, rendering the prepulse ineffective in suppressing the startle reflex. PCP is commonly used to disrupt prepulse inhibition because this abnormality, in addition to negative and cognitive symptoms, are insensitive to 1st generation antipsychotics thereby providing predictive validity.
FIG. 7 is a bar graph illustrating inhibition of a startle response in response to a load stimulus (pulse) when preceded by a pre-pulse stimulus (2-15 db above background). Prepulse inhibition is a commonly used paradigm to screen antipsychotic agents for use in treating schizophrenia. The pre-pulse stimulus presented at 15 dB above background reduced the startle response in saline controls (Sal; N=54) by >60% relative to the response elicited following exposure to the pulse only. […] This reflects sensorimotor gating deficits common to patients afflicted with schizophrenia.
In an exemplary experiment, rats are placed on a platform in a sound attenuating chamber (10.875″×14″×19.5″, Hamilton Kinder, CA) that rests on a motion sensing plate. During all sessions, background noise is held constant at 60 dB. A matching session is conducted to determine the magnitude of the average startle response for each rat. This session consists of a five minute habituation period followed by twenty trials.
Seventeen of these trials involve the presentation of a single auditory stimulus (pulse stimulus; 50 dB above the background noise), and in three of these trials, a pre-pulse stimulus (12 dB above background) is presented 100 ms before the pulse auditory stimulus.
Rats are then assigned to various treatment groups so that the magnitude of the startle response is equivalent across all groups. Two days later, a testing session is conducted to assess sensorimotor gating.
The testing session consists of a five minute habituation period, after which rats received 58 discrete trials: 26 trials during which the pulse stimulus (50 dB above background) was presented alone, eight trials each in which the pulse stimulus was preceded by a pre-pulse stimulus (5, 10, or 15 dB above background), and eight background trials with no pulse (no stimulus; background noise only).
The first six pulse alone trials are not included in the average startle stimulus, to achieve a relatively stable level of startle reactivity. The percent of pre-pulse inhibition is determined as 100−(average pre-pulse startle response/average startle stimulus alone)*100.

The test system of data set [2] is rodents. The settings on record: cited from earlier work.
The conditions of data set [3]: in vivo; cited from earlier work.
The conditions of data set [4]: clinical trials; cited from earlier work.
Data set [5] concerns cocaine abusers. The following applies: cocaine abusers receiving NAC; cited from earlier work.
For data set [6], the system named is human subjects. The settings on record: cited from earlier work.
Where [7] appears, read: N=8/group, versus PCP alone and/or N-acetylcysteine 30 mg/kg, Fisher LSD p<0.05.

For `c1ccc(C2(N3CCCCC3)CCCCC2)cc1` [phencyclidine], the “reduction in the startle response elicited by the pulse when preceded by the pre-pulse” value in data set [1] (rats, phencyclidine only 1.25 mg/kg SC, N=50, regardless of pre-pulse intensity) is recorded as “failed to exhibit a reduction in the response elicited by the pulse”.

Consider `CC(=O)N[C@@H](CS)C(=O)O` [N-acetyl cysteine, N-acetylcysteine], for which the blocking compulsive drug-seeking result in data set [2] was “effective in blocking compulsive drug-seeking”. In addition, in data set [3], the first-pass metabolism entry was “extensive first-pass metabolism” and the “passive transport across the blood-brain barrier” value is reported as “limited passive transport”. Also, the antipsychotic efficacy entry in data set [4] is “clinical trials establishing the antipsychotic efficacy”. Further, in data set [5], the “cocaine use and craving” value was “reduction in cocaine use and craving”. Moreover, the “phencyclidine-induced deficits in sensorimotor gating” value in data set [1] (direct delivery into the brain (prefrontal cortex), FIG. 6) was “reverses phencyclidine-induced deficits in sensorimotor gating”. For the same molecule, the “inhibition of startle response when preceded by pre-pulse (sensorimotor gating)” value (“inhibition of startle response” below) in data set [1] (30 mg/kg po) was “failed to exhibit sensorimotor gating”. In data set [6], the safety/tolerability profile entry is on record as “favorable safety/tolerability profile”.

Take `CC(C)c1noc([C@@H](N)CSSC[C@H](N)c2nc(C(C)C)no2)n1` [Compound 25, (1R,1′R)-2,2′-Disulfanediylbis(1-(3-isopropyl-1,2,4-oxadiazol-5-yl)ethanamine)]: in data set [1] (setting [7]), the “inhibition of startle response” value is “significant difference”.

As to `Cc1noc(C(CSSCC(NC(=O)OC(C)(C)C)c2nc(C)no2)NC(=O)OC(C)(C)C)n1` [Compound 23, tert-Butyl (1R,1′R)-2,2′-disulfanediylbis(1-(3-methyl-1,2,4-oxadiazol-5-yl)ethane-2,1-diyl)dicarbamate], in data set [1] (setting [7]), the “inhibition of startle response” value was “significant difference”.

For the molecule “tert-Butyl (1R,1′R)-2,2′-disulfanediylbis(1-(3-isopropyl-1,2,4-oxadiazol-5-yl)ethane-2,1-diyl)dicarbamate [Compound 22]”, the “inhibition of startle response” value in data set [1] (setting [7]) is “significant difference”.
